{
  "source": "patent US7521560B2",
  "about": "“2-substituted quinoline compounds and their uses” (Rigel Pharmaceuticals, Inc., priority 2004, dated 2009)",
  "data": [
    {"tested_on": "cultured human mast cells (CHMC)", "assay": "CHMC low cell density IgE activation: tryptase release assay", "type": "cell-based", "conditions": "Homo sapiens, Mast cell, anti-IgE-induced tryptase release, low density CHMC", "procedure": "(§1) Inhibition of degranulation was measured at low density (and could also be measures at high cell density) by quantifying the release of the granule specific factor tryptase. Tryptase was quantified using a fluorogenic substrates as described in its respective examples. Histamine, TNFα, IL-6, IL-13 and LTC4 can be quantified, if desired, using the following commercial ELISA kits: histamine (Immunotech #2015, Beckman Coulter), TNFα (Biosource #KHC3011), IL-6 (Biosource #KMC0061), IL-13 (Biosource #KHC0132) and LTC4 (Cayman Chemical #520211). The protocols for various assays are provided below.\n(§2) A second phase is performed to convert the expanded CD34-negative progenitor cells into differentiated mucosal mast cells. These mucosal cultured human mast cells (“CHMC”) are derived from CD34+ cells isolated from umbilical cord blood and treated to form a proliferated population of CD34-negative progenitor cells, as described above. To produce the CD34-negative progenitor cells, the resuspension cycle for the culture was the same as that described above, except that the culture was seeded at a density of 425,000 cells/mL and 15% additional media was added on about day four or five without performing a cell count. Also, the cytokine composition of the medium was modified such that it contained SCF (200 ng/mL) and recombinant human IL-6 (200 ng/mL; Peprotech, Catalog No. 200-06 reconstituted to 100 ug/mL in sterile 10 mM acetic acid) (“CM/SCF/IL-6 medium”).\n(§3) To duplicate 96-well U-bottom plates (Costar 3799) add 65 ul of compound dilutions or control samples that have been prepared in MT [137 mM NaCl, 2.7 mM KCl, 1.8 mM CaCl2, 1.0 mM MgCl2, 5.6 mM Glucose, 20 mM Hepes (pH 7.4), 0.1% Bovine Serum Albumin, (Sigma A4503)] containing 2% MeOH and 1% DMSO. Pellet CHMC cells (980 rpm, 10 min) and resuspend in pre-warmed MT. Add 65 ul of cells to each 96-well plate. Depending on the degranulation activity for each particular CHMC donor, load 1000-1500 cells/well. Mix four times followed by a 1 hr incubation at 37° C. During the 1 hr incubation, prepare 6× anti-IgE solution [rabbit anti-human IgE (1 mg/ml, Bethyl Laboratories A80-109A) diluted 1:167 in MT buffer]. Stimulate cells by adding 25 ul of 6× anti-IgE solution to the appropriate plates. Add 25 ul MT to un-stimulated control wells. Mix twice following addition of the anti-IgE. Incubate at 37° C. for 30 minutes. During the 30 minute incubation, dilute the 20 mM tryptase substrate stock solution [(Z-Ala-Lys-Arg-AMC.2TFA; Enzyme Systems Products, #AMC-246)] 1:2000 in tryptase assay buffer [0.1 M Hepes (pH 7.5), 10% w/v Glycerol, 10 uM Heparin (Sigma H-4898) 0.01% NaN3]. Spin plates at 1000 rpm for 10 min to pellet cells. Transfer 25 ul of supernatant to a 96-well black bottom plate and add 100 ul of freshly diluted tryptase substrate solution to each well. Incubate plates at room temperature for 30 min. Read the […] of the plates at 355 nm/460 nm on a spectrophotometric plate reader.\n(§4) The results of low density CHMC assays for release of tryptase (Section 6.2.2) are provided for examplary quinoline compounds in TABLE 1, supra. In TABLE 1, a value of “+” indicates an IC50 of 20 μM or less; a value of “++” indicates an IC50 of 10 μM or less; and a value of “+++” indicates an IIC50 of 5 μM or less.", "units": {"IC50": "µM"}, "values": [
      {"smiles": "Clc1ccc2nc(Nc3cc(-c4ccccc4)n[nH]3)ccc2c1", "note": "[Compound 1, 6-chloro-2-(3-phenyl-1H-pyrazol-5-ylamino)quinoline]", "IC50": "≤ 5"},
      {"smiles": "Clc1cccc2ccc(Nc3n[nH]c(-c4ccccc4)c3Br)nc12", "note": "[Compound 2, 2-(4-bromo-5-phenyl-1H-pyrazol-3-ylamino)-8-chloroquinoline]", "IC50": "≤ 5"},
      {"smiles": "Clc1ccc2nc(Nc3n[nH]c(-c4ccccc4)c3Br)ccc2c1", "note": "[Compound 3, 2-(4-bromo-5-phenyl-1H-pyrazol-3-ylamino)-6-chloroquinoline]", "IC50": "≤ 5"},
      {"smiles": "NC(=O)c1[nH]cnc1Nc1ccc2cc(Cl)ccc2n1", "note": "[Compound 4, 2-(5-aminocarbonyl-1H-imidazol-4-ylamino)-6-chloroquinoline]", "IC50": "≤ 5"},
      {"smiles": "NC(=O)c1[nH]cnc1Nc1ccc2cccc(Cl)c2n1", "note": "[Compound 5, 2-(5-aminocarbonyl-1H-imidazol-4-ylamino)-8-chloroquinoline]", "IC50": "≤ 5"},
      {"smiles": "NC(=O)c1c[nH]nc1Nc1ccc2cccc(Cl)c2n1", "note": "[Compound 6, 2-(4-aminocarbonyl-1H-pyrazol-3-ylamino)-8-chloroquinoline]", "IC50": "≤ 5"},
      {"smiles": "Clc1cccc2ccc(Nc3cc(-c4ccccc4)n[nH]3)nc12", "note": "[Compound 7, 8-chloro-2-(3-phenyl-1H-pyrazol-5-ylamino)quinoline]", "IC50": "≤ 5"},
      {"smiles": "Clc1cccc2ccc(Nc3cc(-c4cccs4)n[nH]3)nc12", "note": "[Compound 8, 8-chloro-2-(3-thiophen-2-yl-1H-pyrazol-5-ylamino)quinoline]", "IC50": "≤ 5"},
      {"smiles": "Clc1ccc2nc(Nc3cc(-c4cccs4)n[nH]3)ccc2c1", "note": "[Compound 9, 6-chloro-2-(3-thiophen-2-yl-1H-pyrazol-5-ylamino)quinoline]", "IC50": "≤ 5"},
      {"smiles": "COc1ccc(-c2cc(Nc3ccc4cccc(Cl)c4n3)n[nH]2)cc1", "note": "[Compound 10, 8-chloro-2-[5-(4-methoxyphenyl)-1H-pyrazol-3-ylamino]quinoline]", "IC50": "≤ 5"},
      {"smiles": "COc1ccc(-c2cc(Nc3ccc4cc(Cl)ccc4n3)n[nH]2)cc1", "note": "[Compound 11, 6-chloro-2-[5-(4-methoxyphenyl)-1H-pyrazol-3-ylamino]quinoline]", "IC50": "≤ 5"},
      {"smiles": "Cc1cc(Nc2ccc3cccc(Cl)c3n2)n[nH]1", "note": "[Compound 12, 8-chloro-2-(5-methyl-1H-pyrazol-3-ylamino)quinoline]", "IC50": "≤ 5"},
      {"smiles": "CC(C)(C)c1cc(Nc2ccc3cccc(Cl)c3n2)n[nH]1", "note": "[Compound 13, 2-(5-tert-butyl-1H-pyrazol-3-ylamino)-8-chloroquinoline]", "IC50": "≤ 10"},
      {"smiles": "Cc1cc(Nc2nc[nH]c2C(N)=O)nc2ccccc12", "note": "[Compound 15, 2-(5-aminocarbonyl-1H-imidazol-4-ylamino)-4-methylquinoline]", "IC50": "≤ 10"},
      {"smiles": "NC(=O)c1c[nH]nc1Nc1ccc2cc(Cl)ccc2n1", "note": "[Compound 16, 2-(4-aminocarbonyl-1H-pyrazol-3-ylamino)-6-chloroquinoline]", "IC50": "≤ 10"},
      {"smiles": "CCOC(=O)c1c[nH]nc1Nc1ccc2cccc(Cl)c2n1", "note": "[Compound 17, 8-chloro-2-(4-ethoxycarbonyl-1H-pyrazol-3-ylamino)quinoline]", "IC50": "≤ 10"},
      {"smiles": "CNC(=O)c1cc(Nc2nc[nH]c2C(N)=O)nc2ccccc12", "note": "[Compound 18, 2-(5-aminocarbonyl-1H-imidazol-4-ylamino)-4-methylaminocarbonylquinoline]", "IC50": "≤ 10"},
      {"smiles": "Clc1cccc2ccc(Nc3cc[nH]n3)nc12", "note": "[Compound 19, 8-chloro-2-(1H-pyrazol-3-ylamino)quinoline]", "IC50": "≤ 20"},
      {"smiles": "N#Cc1c[nH]nc1Nc1ccc2cccc(Cl)c2n1", "note": "[Compound 20, 8-chloro-2-(4-cyano-1H-pyrazol-3-ylamino)quinoline]", "IC50": "≤ 20"},
      {"smiles": "Oc1cccc2ccc(Nc3nc[nH]c3Cl)nc12", "note": "[Compound 21, 2-(5-chloro-1H-imidazol-4-ylamino)-8-hydroxyquinoline]", "IC50": "> 20"},
      {"smiles": "NC(=O)c1[nH]cnc1Nc1cc(C(=O)N2CCOCC2)c2ccccc2n1", "note": "[Compound 22, 2-(5-aminocarbonyl-1H-imidazol-4-ylamino)-4-(4-morpholinocarbonyl)quinoline]", "IC50": "> 20"}
    ]},
    {"tested_on": "cultured human mast cells (CHMC)", "assay": "CHMC low cell density IgE activation: tryptase release assay", "type": "cell-based", "conditions": "Homo sapiens, Mast cell, anti-IgE-induced tryptase release, low density CHMC; stated in text", "procedure": "as §1, §2, §3, §4", "units": {"IC50": "µM"}, "values": [
      {"smiles": "Oc1cccc2ccc(Nc3nc[nH]c3Cl)nc12", "note": "[Compound 21, 2-(5-chloro-1H-imidazol-4-ylamino)-8-hydroxyquinoline]", "IC50": "> 20"},
      {"smiles": "NC(=O)c1[nH]cnc1Nc1cc(C(=O)N2CCOCC2)c2ccccc2n1", "note": "[Compound 22, 2-(5-aminocarbonyl-1H-imidazol-4-ylamino)-4-(4-morpholinocarbonyl)quinoline]", "IC50": "> 20"}
    ]},
    {"tested_on": "cultured human mast cells (CHMC)", "assay": "CHMC low cell density IgE activation: tryptase release assay", "type": "cell-based", "conditions": "referring to TABLE 1", "procedure": "as §1, §2, §3, §4", "values": [
      {"smiles": "CCOC(=O)c1c[nH]nc1Nc1ccc2cccc(Cl)c2n1", "note": "[Compound 17, 8-chloro-2-(4-ethoxycarbonyl-1H-pyrazol-3-ylamino)quinoline]", "activity in \"prodrug\" form": "active"},
      {"smiles": "CNC(=O)c1cc(Nc2nc[nH]c2C(N)=O)nc2ccccc12", "note": "[Compound 18, 2-(5-aminocarbonyl-1H-imidazol-4-ylamino)-4-methylaminocarbonylquinoline]", "activity in \"prodrug\" form": "active"}
    ]},
    {"tested_on": "passive cutaneous anaphylaxis (PCA) response", "assay": "not given", "conditions": "8 mg/kg, i.p., 30 minutes pretreatment time, n=23 experiments", "units": {"inhibition of the PCA response": "%+/−4"}, "values": [
      {"smiles": "CN1CCC(=C2c3ccccc3C=Cc3ccccc32)CC1", "note": "[Cyproheptadine, cyproheptadine]", "inhibition of the PCA response": 61}
    ]},
    {"tested_on": "passive cutaneous anaphylaxis (PCA) response", "assay": "not given", "conditions": "highest dose, 50 mg/kg, i.p., 30 minutes pretreatment time", "values": [
      {"smiles": "CN(C)CCOC(c1ccccc1)c1ccccc1", "note": "[diphenhydramine]", "inhibition of the PCA response": "up to 86%"}
    ]}
  ]
}
